Values joined by “and” are separate entries in the source; they are usually repeats but may differ in a detail not shown here. Equal entries are not always repeated. Toxic doses and inconclusive results are not listed.
Test system: CD2F1 mice, L1210 leukemia ip, survival T/C
Test: NCI In Vivo Anticancer Drug Screen. Data for tumor model L1210 Leukemia (intraperitoneal) in CD2F1 (CDF1) mice
Details: higher = longer survival
Outline: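 Ratio T/C, where T is the treated-group value and C the vehicle-dosed control value, from mice implanted with a transplantable tumor.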

[1] = endpoint: mean survival time, dose: 25.0 mg/kg/injection, schedule: Q01DX005 (ip), vehicle: other
[2] = endpoint: mean survival time, dose: 50.0 mg/kg/injection, schedule: Q01DX005 (ip), vehicle: other
[3] = endpoint: mean survival time, dose: 100.0 mg/kg/injection, schedule: Q01DX005 (ip), vehicle: other
[4] = endpoint: mean survival time, dose: 100.0 mg/kg/injection, schedule: Q04DX003 (ip), vehicle: saline with Tween-80
[5] = endpoint: mean survival time, dose: 200.0 mg/kg/injection, schedule: Q04DX003 (ip), vehicle: saline with Tween-80
[6] = endpoint: mean survival time, dose: 400.0 mg/kg/injection, schedule: Q04DX003 (ip), vehicle: saline with Tween-80
[7] = endpoint: mean survival time, dose: 100.0 mg/kg/injection, schedule: Q01DX009 (ip), vehicle: saline with Tween-80
[8] = endpoint: mean survival time, dose: 200.0 mg/kg/injection, schedule: Q01DX009 (ip), vehicle: saline with Tween-80
[9] = endpoint: mean survival time, dose: 400.0 mg/kg/injection, schedule: Q01DX009 (ip), vehicle: saline with Tween-80
[10] = endpoint: mean survival time, dose: 5.0 mg/kg/injection, schedule: Q01DX009 (ip), vehicle: saline with Tween-80
[11] = endpoint: mean survival time, dose: 10.0 mg/kg/injection, schedule: Q01DX009 (ip), vehicle: saline with Tween-80
[12] = endpoint: mean survival time, dose: 20.0 mg/kg/injection, schedule: Q01DX009 (ip), vehicle: saline with Tween-80

CN(N=O)C(=O)N[C@@H](C=O)[C@@H](O)[C@H](O)[C@H](O)CO
T/C (endpoint: mean survival time, dose: 12.5 mg/kg/injection, schedule: Q01DX005 (ip), vehicle: other): 104 % of control | T/C (endpoint: mean survival time, dose: 19.6 mg/kg/injection, schedule: Q01DX009 (ip), vehicle: other): 104 % of control | T/C (endpoint: mean survival time, dose: 25.0 mg/kg/injection, schedule: Q01DX001 (ip), vehicle: other): 102 % of control and 103 % of control | T/C [1]: 112 % of control | T/C (endpoint: mean survival time, dose: 25.0 mg/kg/injection, schedule: Q04DX003 (ip), vehicle: other): 102 % of control | T/C (endpoint: mean survival time, dose: 29.3 mg/kg/injection, schedule: Q01DX009 (ip), vehicle: other): 107 % of control | T/C (endpoint: mean survival time, dose: 32.0 mg/kg/injection, schedule: Q03HX008 (ip), vehicle: other): 98 % of control | T/C (endpoint: mean survival time, dose: 32.0 mg/kg/injection, schedule: Q03HX016 (ip), vehicle: other): 98 % of control | T/C (endpoint: mean survival time, dose: 37.5 mg/kg/injection, schedule: Q01DX001 (ip), vehicle: other): 107 % of control | T/C (endpoint: mean survival time, dose: 44.0 mg/kg/injection, schedule: Q01DX009 (ip), vehicle: other): 117 % of control | T/C (endpoint: mean survival time, dose: 50.0 mg/kg/injection, schedule: Q01DX001 (ip), vehicle: other): 94 % of control and 105 % of control | T/C [2]: 117 % of control | T/C (endpoint: mean survival time, dose: 50.0 mg/kg/injection, schedule: Q04DX003 (ip), vehicle: other): 106 % of control | T/C (endpoint: mean survival time, dose: 64.0 mg/kg/injection, schedule: Q03HX008 (ip), vehicle: other): 96 % of control | T/C (endpoint: mean survival time, dose: 64.0 mg/kg/injection, schedule: Q03HX016 (ip), vehicle: other): 95 % of control | T/C (endpoint: mean survival time, dose: 75.0 mg/kg/injection, schedule: Q01DX001 (ip), vehicle: other): 98 % of control | T/C (endpoint: mean survival time, dose: 100.0 mg/kg/injection, schedule: Q01DX001 (ip), vehicle: other): 113 % of control and 103 % of control | T/C [3]: 116 % of control | T/C (endpoint: mean survival time, dose: 100.0 mg/kg/injection, schedule: Q01DX009 (ip), vehicle: saline): 111 % of control | T/C (endpoint: mean survival time, dose: 100.0 mg/kg/injection, schedule: Q04DX003 (ip), vehicle: other): 109 % of control | T/C (endpoint: mean survival time, dose: 128.0 mg/kg/injection, schedule: Q03HX008 (ip), vehicle: other): 102 % of control | T/C (endpoint: mean survival time, dose: 128.0 mg/kg/injection, schedule: Q03HX016 (ip), vehicle: other): 108 % of control | T/C (endpoint: mean survival time, dose: 150.0 mg/kg/injection, schedule: Q01DX001 (ip), vehicle: other): 104 % of control | T/C (endpoint: mean survival time, dose: 200.0 mg/kg/injection, schedule: Q01DX001 (ip), vehicle: other): 118 % of control and 124 % of control and 106 % of control | T/C (endpoint: mean survival time, dose: 200.0 mg/kg/injection, schedule: Q01DX009 (ip), vehicle: saline): 103 % of control | T/C (endpoint: mean survival time, dose: 200.0 mg/kg/injection, schedule: Q04DX003 (ip), vehicle: other): 120 % of control | T/C (endpoint: mean survival time, dose: 250.0 mg/kg/injection, schedule: Q01DX001 (ip), vehicle: other): 109 % of control | T/C (endpoint: mean survival time, dose: 256.0 mg/kg/injection, schedule: Q03HX008 (ip), vehicle: other): 108 % of control | T/C (endpoint: mean survival time, dose: 256.0 mg/kg/injection, schedule: Q03HX016 (ip), vehicle: other): 113 % of control | T/C (endpoint: mean survival time, dose: 300.0 mg/kg/injection, schedule: Q01DX001 (ip), vehicle: other): 119 % of control and 110 % of control | T/C (endpoint: mean survival time, dose: 350.0 mg/kg/injection, schedule: Q01DX001 (ip), vehicle: other): 113 % of control | T/C (endpoint: mean survival time, dose: 400.0 mg/kg/injection, schedule: Q01DX001 (ip), vehicle: other): 117 % of control and 102 % of control | T/C (endpoint: median survival time, dose: 21.6 mg/kg/injection, schedule: Q01DX009 (ip), vehicle: saline): 100 % of control | T/C (endpoint: median survival time, dose: 36.0 mg/kg/injection, schedule: Q01DX009 (ip), vehicle: saline): 102 % of control | T/C (endpoint: median survival time, dose: 60.0 mg/kg/injection, schedule: Q01DX009 (ip), vehicle: saline): 109 % of control | T/C (endpoint: median survival time, dose: 100.0 mg/kg/injection, schedule: Q01DX009 (ip), vehicle: saline): 110 % of control

NN=C1c2ccccc2-c2ccccc21
T/C [4]: 94 % of control | T/C [5]: 86 % of control | T/C [6]: 96 % of control

Br/C(C=Nc1ccccc1)=C\Nc1ccccc1
T/C [7]: 102 % of control | T/C [4]: 101 % of control | T/C [8]: 86 % of control | T/C [5]: 108 % of control | T/C [9]: 86 % of control | T/C [6]: 108 % of control

Cc1[nH]ccc2c(C)c3nc4ccccc4c3cc12
T/C (endpoint: mean survival time, dose: 50.0 mg/kg/injection, schedule: Q01DX009 (ip), vehicle: saline with Tween-80): 152 % of control | T/C [7]: 117 % of control | T/C [5]: 96 % of control

Cc1ccc(S(=O)(=O)NC(=O)NCCC(C)C)cc1
T/C (endpoint: mean survival time, dose: 100.0 mg/kg/injection, schedule: Q01DX009 (ip), vehicle: saline sonified): 104 % of control | T/C (endpoint: mean survival time, dose: 200.0 mg/kg/injection, schedule: Q01DX009 (ip), vehicle: saline sonified): 97 % of control | T/C (endpoint: mean survival time, dose: 400.0 mg/kg/injection, schedule: Q01DX009 (ip), vehicle: saline sonified): 98 % of control

CN(C)N=Nc1ccc(C#N)cc1
T/C (endpoint: mean survival time, dose: 7.37 mg/kg/injection, schedule: Q01DX009 (ip), vehicle: Klucel (hydroxypropylcellulose) (HPC)): 100 % of control | T/C (endpoint: mean survival time, dose: 14.75 mg/kg/injection, schedule: Q01DX009 (ip), vehicle: Klucel (hydroxypropylcellulose) (HPC)): 100 % of control | T/C (endpoint: mean survival time, dose: 29.5 mg/kg/injection, schedule: Q01DX009 (ip), vehicle: Klucel (hydroxypropylcellulose) (HPC)): 108 % of control | T/C (endpoint: mean survival time, dose: 59.0 mg/kg/injection, schedule: Q01DX009 (ip), vehicle: Klucel (hydroxypropylcellulose) (HPC)): 108 % of control | T/C (endpoint: mean survival time, dose: 118.0 mg/kg/injection, schedule: Q01DX009 (ip), vehicle: Klucel (hydroxypropylcellulose) (HPC)): 120 % of control and 107 % of control

N#CC(=C=[N-])C(C#N)(C#N)Cc1ccccc1.[C-]#[O+].[C-]#[O+].[Fe+6].[c-]1[c-][c-][cH-][c-]1
T/C (endpoint: mean survival time, dose: 12.5 mg/kg/injection, schedule: Q04DX002 (ip), vehicle: saline with Tween-80): 93 % of control | T/C (endpoint: mean survival time, dose: 25.0 mg/kg/injection, schedule: Q04DX002 (ip), vehicle: saline with Tween-80): 97 % of control | T/C (endpoint: mean survival time, dose: 50.0 mg/kg/injection, schedule: Q04DX002 (ip), vehicle: saline with Tween-80): 97 % of control

Cc1ccc([P+](Cc2ccccc2)(c2ccccc2)c2ccccc2)cc1
T/C (endpoint: mean survival time, dose: 5.0 mg/kg/injection, schedule: Q01DX001 (ip), vehicle: saline): 108 % of control | T/C (endpoint: mean survival time, dose: 10.0 mg/kg/injection, schedule: Q01DX001 (ip), vehicle: saline): 105 % of control | T/C (endpoint: mean survival time, dose: 20.0 mg/kg/injection, schedule: Q01DX001 (ip), vehicle: saline): 96 % of control | T/C (endpoint: mean survival time, dose: 40.0 mg/kg/injection, schedule: Q01DX001 (ip), vehicle: saline): 109 % of control

COc1cc(Cc2cnc(NC(C)=O)nc2NC(C)=O)cc(OC)c1OC
T/C [6]: 93 % of control

Nc1nc(Cl)c2nnn(C3CC(O)C(CO)C3)c2n1 (stereo not drawn)
T/C (endpoint: mean survival time, dose: 6.25 mg/kg/injection, schedule: Q01DX009 (ip), vehicle: Klucel (hydroxypropylcellulose) (HPC)): 117 % of control | T/C (endpoint: mean survival time, dose: 12.5 mg/kg/injection, schedule: Q01DX009 (ip), vehicle: Klucel (hydroxypropylcellulose) (HPC)): 106 % of control | T/C (endpoint: mean survival time, dose: 25.0 mg/kg/injection, schedule: Q01DX009 (ip), vehicle: Klucel (hydroxypropylcellulose) (HPC)): 117 % of control

C[n+]1cccc(NC(=O)c2ccc(NC(=O)C34CCC(C(=O)Nc5ccc(C(=O)Nc6ccc[n+](C)c6)cc5)(CC3)CC4)cc2)c1
T/C (endpoint: mean survival time, dose: 2.5 mg/kg/injection, schedule: Q01DX009 (ip), vehicle: saline with Tween-80): 113 % of control | T/C [10]: 123 % of control and 104 % of control | T/C [11]: 110 % of control | T/C [12]: 160 % of control | T/C (endpoint: mean survival time, dose: 80.0 mg/kg/injection, schedule: Q01DX009 (ip), vehicle: saline with Tween-80): 108 % of control | T/C (endpoint: median survival time, dose: 3.6 mg/kg/injection, schedule: Q01DX009 (ip), vehicle: saline with Tween-80): 106 % of control | T/C (endpoint: median survival time, dose: 16.67 mg/kg/injection, schedule: Q01DX009 (ip), vehicle: saline with Tween-80): 264 % of control

Cc1nc(=S)c2ccccc2[nH]1
T/C (endpoint: mean survival time, dose: 100.0 mg/kg/injection, schedule: Q01DX001 (ip), vehicle: Klucel (hydroxypropylcellulose) (HPC)): 97 % of control | T/C (endpoint: mean survival time, dose: 200.0 mg/kg/injection, schedule: Q01DX001 (ip), vehicle: Klucel (hydroxypropylcellulose) (HPC)): 94 % of control | T/C (endpoint: mean survival time, dose: 400.0 mg/kg/injection, schedule: Q01DX001 (ip), vehicle: Klucel (hydroxypropylcellulose) (HPC)): 100 % of control

COC(CN(CC(OC)OC)c1ncnc2nc[nH]c12)OC
T/C [1]: 93 % of control | T/C [2]: 91 % of control | T/C [3]: 98 % of control | T/C (endpoint: mean survival time, dose: 200.0 mg/kg/injection, schedule: Q01DX005 (ip), vehicle: other): 98 % of control | T/C (endpoint: mean survival time, dose: 400.0 mg/kg/injection, schedule: Q01DX005 (ip), vehicle: other): 96 % of control

O=c1cc(C(F)(F)F)[nH]c2ccc(F)cc12
T/C [10]: 101 % of control | T/C [11]: 100 % of control | T/C [12]: 96 % of control

COc1cc(OC)c(NC(=O)NC(C)C)cc1Cl
T/C [7]: 100 % of control | T/C [8]: 96 % of control | T/C [9]: 100 % of control

— PubChem BioAssay AID256 (DTP/NCI, 2004)
